Here are results for 21 compounds from ChEMBL document CHEMBL1147535, “Biaryl amide glucagon receptor antagonists” (Bioorg Med Chem Lett, 2004).

In series [1] the target is Adenylate cyclase. Description: In vitro inhibitory activity against glucagon induced human adenylate cyclase. Type of series: protein assay.
A further series has as its target Glucagon receptor (Homo sapiens, UniProt P47871). Kind of series: In vitro binding affinity against human glucagon receptor (h-GlucR) was determined.
The test system of another series is Rattus norvegicus. Kind of series: Percent reduction of glucagon induced glucose excursion by the compound after an i.v. dose of 50 mg/kg to rats. Particulars: route intravenous. Format: functional.
The nature of series [2]: Oral bioavailability. Type of series: ADME, organism-based. The following applies: eutheria, in vivo.
Series [3] addresses Adenylate cyclase. Kind of series: In vitro inhibitory activity against glucagon induced monkey adenylate cyclase. Type of series: protein assay, Cercopithecidae.

Usually Ki stands for the equilibrium dissociation constant of an inhibitor or competing ligand from its target. One may read the bioavailability as the share of a dose that reaches the circulation, judged against a reference dose that is usually intravenous.

Sequence of Glucagon receptor (P47871 whole entry): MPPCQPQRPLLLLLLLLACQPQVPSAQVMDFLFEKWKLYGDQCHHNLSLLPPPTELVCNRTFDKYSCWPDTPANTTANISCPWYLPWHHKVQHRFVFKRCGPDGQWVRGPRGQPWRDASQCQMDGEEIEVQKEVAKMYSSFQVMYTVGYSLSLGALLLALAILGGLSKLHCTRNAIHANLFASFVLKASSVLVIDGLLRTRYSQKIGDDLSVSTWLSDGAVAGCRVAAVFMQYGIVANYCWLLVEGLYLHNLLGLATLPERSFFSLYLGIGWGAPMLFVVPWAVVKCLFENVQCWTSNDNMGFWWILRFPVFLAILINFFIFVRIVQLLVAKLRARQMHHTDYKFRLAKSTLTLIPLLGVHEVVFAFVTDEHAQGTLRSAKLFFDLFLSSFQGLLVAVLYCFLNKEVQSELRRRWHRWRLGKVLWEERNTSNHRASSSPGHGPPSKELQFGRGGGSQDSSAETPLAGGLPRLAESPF

Take `CCCCCCC(Cc1ccc(C(=O)NCCC(=O)O)cc1)C(=O)Nc1ccc(-c2cc3ccccc3o2)cc1` (stereo not given): the values for the inhibitory constant (Ki) on Adenylate cyclase [1] and at Glucagon receptor were 20 nM and 6 nM, respectively.
Take `CC(C)(C)c1ccc(C(Cc2ccc(C(=O)NCCC(=O)O)cc2)C(=O)Nc2ccc(-c3cc4ccccc4o3)cc2)cc1` (stereo not given): the Reduction in the series with Rattus norvegicus amounted to 50%. Besides, the bioavailability in series [2] was less than 5%. In addition, the Ki at Adenylate cyclase [1] stood at 29 nM; at Adenylate cyclase [3] it was 69 nM; on Glucagon receptor it was 4 nM.
For the compound `CC(C)(C)c1ccc(C(Oc2ccc(C(=O)NCC(F)C(=O)O)cc2)C(=O)Nc2ccc(-c3ccccc3)cc2)cc1` (stereo not given), the Ki on Adenylate cyclase [1] was more than 2000 nM; on Glucagon receptor it was 26 nM.
For `CCCCCCC(Oc1ccc(C(=O)NCCC(=O)O)cc1)C(=O)Nc1ccc(-c2cc3ccccc3o2)cc1` (stereo not given), in that order: 17 nM and 3 nM.
In the case of `CC(C)(C)c1ccc(C(Cc2ccc(C(=O)NCCC(=O)O)cc2)C(=O)Nc2cnc3ccccc3c2)cc1` (stereo not given), the inhibition constant (Ki) on Adenylate cyclase [1] amounted to 610 nM; at Glucagon receptor it was 11 nM.
With `CC(C)(C)c1ccc(C(Cc2ccc(C(=O)NCCC(=O)O)cc2)C(=O)Nc2ccc(-c3ccc(Cl)cc3Cl)cc2)cc1` (stereo not given), the Ki at Adenylate cyclase [1] stood at 33 nM; on Glucagon receptor it was 6 nM.
Turning to `CC(C)(C)c1ccc(C(Cc2ccc(C(=O)NCCC(=O)O)cc2)C(=O)Nc2ccc(OC(F)(F)F)cc2)cc1` (stereo not given), the Ki at Adenylate cyclase [1] came to 110 nM; at Glucagon receptor it was 51 nM.
In the same order, the values of `CC(C)(C)c1ccc(C(Oc2ccc(C(=O)NCC(O)C(=O)O)cc2)C(=O)Nc2ccc(-c3ccccc3)cc2)cc1` (stereo not given) are more than 2000 nM and 112 nM.
`CC(C)(C)[C@H]1CC[C@H](N(Cc2ccc(C(=O)NCCC(=O)O)cc2)C(=O)Nc2ccc(OC(F)(F)F)cc2)CC1`: the inhibition constant Ki at Adenylate cyclase [1] amounted to 254 nM; at Glucagon receptor, 63 nM.
On to `CC(C)(C)c1ccc(C(Cc2ccc(C(=O)NCCC(=O)O)cc2)C(=O)Nc2ccc(COC(F)(F)F)cc2)cc1` (stereo not given), for which the results for the Ki on Adenylate cyclase [1] and on Glucagon receptor were more than 2000 nM and 5000 nM, respectively.
In the same order, the values of `CCc1cccc(NC(=O)C(Cc2ccc(C(=O)NCCC(=O)O)cc2)c2ccc(C(C)(C)C)cc2)c1` (stereo not given) are more than 2000 nM and 80 nM.
Consider `CCc1ccc(NC(=O)C(Cc2ccc(C(=O)NCCC(=O)O)cc2)c2ccc(C(C)(C)C)cc2)cc1` (stereo not given), for which the Ki at Adenylate cyclase [1] is more than 2000 nM; on Glucagon receptor, 26 nM.
In the same order, the values of `Cc1ccc(N2CCN(C(=O)C(Cc3ccc(C(=O)NCCC(=O)O)cc3)c3ccc(C(C)(C)C)cc3)CC2)cc1` (stereo not given) are more than 2000 nM and 400 nM.
Consider `CC(C)(C)c1ccc(C(Cc2ccc(C(=O)NCCC(=O)O)cc2)C(=O)Nc2ccc(-c3ccccc3)cc2)cc1` (stereo not given), for which the inhibition constant (Ki) was determined as 300 nM at Adenylate cyclase [1] and 11 nM on Glucagon receptor.
For `CC(C)(C)c1ccc(C(Cc2ccc(C(=O)NCCC(=O)O)cc2)C(=O)Nc2ccc(N3CCCCC3)cc2)cc1` (stereo not given), in that order: more than 2000 nM and 73 nM.
As for `CCN1CCN(C(=O)C(Cc2ccc(C(=O)NCCC(=O)O)cc2)c2ccc(C(C)(C)C)cc2)CC1` (stereo not given), the Ki at Adenylate cyclase [1] is more than 2000 nM; on Glucagon receptor it was more than 5000 nM.
For `CC(C)(C)c1ccc(C(Oc2ccc(C(=O)NCCC(=O)O)cc2)C(=O)Nc2ccc(-c3ccccc3)cc2)cc1` (stereo not given), in that order: 144 nM and 9 nM.
In the same order, the values of `CC(C)(C)c1ccc(C(Oc2ccc(C(=O)Nc3nn[nH]n3)cc2)C(=O)Nc2ccc(-c3ccccc3)cc2)cc1` (stereo not given) are 317 nM and 66 nM.
For `CC(C)(C)c1ccc(C(Cc2ccc(C(=O)NCCC(=O)O)cc2)C(=O)Nc2ccc(CO)cc2)cc1` (stereo not given), in that order: 1000 nM and 29 nM.
`CC(C)(C)c1ccc(C(Cc2ccc(C(=O)NCCC(=O)O)cc2)C(=O)Nc2ccc(-n3cccn3)cc2)cc1` (stereo not given): the figures for the Ki on Adenylate cyclase [1] and on Glucagon receptor were more than 2000 nM and 70 nM, respectively.
On to `CCCCCCC(Oc1ccc(C(=O)NCCC(=O)O)cc1)C(=O)Nc1ccc(-c2ccc(Cl)cc2Cl)cc1` (stereo not given), for which the results for the Ki at Adenylate cyclase [1] and on Glucagon receptor were 14 nM and 6 nM, respectively.
